Test results taken from ChEMBL document CHEMBL4152218, “Novel hydrazide-hydrazone and amide substituted coumarin derivatives: Synthesis, cytotoxicity screening, microarray, radiolabeling and in vivo pharmacokinetic studies” (Eur J Med Chem, 2018).
Active and inactive are the calls of the source. No cut-off for these calls is given here.

Columns and labels:
PANC-1 [1] = assay: Effect on NBPF20 gene expression in human PANC1 cells at IC50 after 48 hrs by microarray analysis; assay type: functional, cell-based
PANC-1 [2] = assay: Effect on TBC1D26 gene expression in human PANC1 cells at IC50 after 48 hrs by microarray analysis; assay type: functional, cell-based
PANC-1 [3] = assay: Effect on GSTM1 gene expression in human PANC1 cells at IC50 after 48 hrs by microarray analysis; assay type: functional, cell-based
PANC-1 [4] = assay: Effect on RBM39 gene expression in human PANC1 cells at IC50 after 48 hrs by microarray analysis; assay type: functional, cell-based
TERT-RPE1 = assay: Cytotoxicity against hTERT-RPE1 cells after 48 hrs by resazurin dye-based fluorescence assay; assay type: cell-based; conditions: Homo sapiens, RPE-1, 48 h
HepG2 [5] = assay: Effect on TOP3A gene expression in human HepG2 cells at IC50 after 48 hrs by microarray analysis; assay type: functional, cell-based
PANC-1 [6] = assay: Effect on LIMK1 gene expression in human PANC1 cells at IC50 after 48 hrs by microarray analysis; assay type: functional, cell-based
PANC-1 [7] = assay: Effect on PVRL3 gene expression in human PANC1 cells at IC50 after 48 hrs by microarray analysis; assay type: functional, cell-based
PANC-1 [8] = assay: Effect on HIST1H4C gene expression in human PANC1 cells at IC50 after 48 hrs by microarray analysis; assay type: functional, cell-based
PANC-1 [9] = assay: Effect on ELP2P gene expression in human PANC1 cells at IC50 after 48 hrs by microarray analysis; assay type: functional, cell-based
HepG2 [10] = assay: Effect on GADD45A gene expression in human HepG2 cells at IC50 by SYBR green-dye based qRT-PCR analysis relative to beta-actin; assay type: functional
PANC-1 [11] = assay: Effect on SDR16C5 gene expression in human PANC1 cells at IC50 after 48 hrs by microarray analysis; assay type: functional, cell-based
[12] = Selectivity index, ratio of IC50 for hTERT-BJ cells to IC50 for human CCRF-CEM cells; assay type: toxicity; conditions: hTERT-BJ cells versus CCRF-CEM cells, read-out: Ratio IC50
HepG2 [13] = assay: Effect on GST A2 gene expression in human HepG2 cells at IC50 after 48 hrs by microarray analysis; assay type: functional, cell-based
hTERT-BJ = assay: Cytotoxicity against hTERT-BJ cells after 48 hrs by resazurin dye-based fluorescence assay; assay type: cell-based; conditions: Homo sapiens
HepG2 [14] = assay: Effect on TOP2A gene expression in human HepG2 cells at IC50 after 48 hrs by microarray analysis; assay type: functional, cell-based
HepG2 [15] = assay: Effect on CASP7 gene expression in human HepG2 cells at IC50 after 48 hrs by microarray analysis relative to control; assay type: functional

In the case of `O=C(N/N=C/c1cc2ccccc2nc1Cl)c1cc2cc(Br)ccc2oc1=O`, the Activity (PANC-1 [1]) is reported as “Active”, the Activity (PANC-1 [2]) is reported as “Active” and the Activity (PANC-1 [3]) is reported as “Active”. The Activity (PANC-1 [4]) was “Active”, the IC50 (TERT-RPE1) was over 50 µM and the Activity (HepG2 [5]) was “Active”. The Activity (PANC-1 [6]) was “Active”, the Activity (PANC-1 [7]) was “Active” and the Activity (PANC-1 [8]) was “Active”. For the same compound, the Activity (PANC-1 [9]) was “Active”, the “fold change (FC)” value (HepG2 [10]) was 3.52 and the Activity (PANC-1 [11]) was “Active”. For the same compound, the selectivity ratio [12] was over 6.71, the Activity (HepG2 [13]) was “Active” and the IC50 (hTERT-BJ) was over 50 µM. For the same compound, the Activity (HepG2 [14]) was “Active” and the “fold change (FC)” value (HepG2 [15]) was 3.18.
